Reference: patent publication US20100203159A1, “METAL COMPONENT […] IN PLANT” (COSMO OIL CO., LTD., priority 2007, published 2010)

Legend:
barley [1] = test: Metal absorption-enhancing effect in barley hydroponics (water culture medium A), ICP metal analysis; assay type: in vivo, Barley (race: Fiber snow); details: for calcium content-enhancing effect in barley: FIG. 1; for zinc content-enhancing effect in barley: FIG. 5; for copper content-enhancing effect in barley: FIG. 4; for manganese content-enhancing effect in barley: FIG. 2; for iron content-enhancing effect in barley: FIG. 3
Procedure: Barley (race: Fiber snow) was seeded on river sand, sprouted, and grown for 9 days. After the growth, the sand was washed out with caring so as not to hurt roots and the roots were cut so as to adjust the length to 2 cm. The roots were immersed in a water culture medium A and hydroponics was performed.
As water culture media, one in which no 5-aminolevulinic acid was dissolved and those in which the compound was dissolved so that each one has a concentration of 0.1, 0.3, or 1 ppm were prepared. The water culture medium was replaced 13 days after the start of the hydroponics, and hydroponics was continued for another 6 days. After the hydroponics, the plant was dried at 50° C. for two nights and then was subjected to ICP metal analysis.
Similar operations were performed as in Example 6 except that the concentration of the added 5-aminolevulinic acid was adjusted to 0, 0.3, or 1 ppm and the manganese concentration in barley was analyzed.
Similar operations were performed as in Example 6 except that the composition of the water culture medium was changed to twofold concentration of the water culture medium A and the concentration of the added 5-aminolevulinic acid was adjusted to 0, 1, or 3 ppm, and then the iron concentration in barley was analyzed.
Similar operations were performed as in Example 6 except that the water culture medium A and a water culture medium having a composition which was twice the composition of the water culture medium A were used and the concentration of the added 5-aminolevulinic acid was adjusted to 0, 0.1, or 0.3 ppm, and then the copper concentration in barley was analyzed. The results are shown in FIG. 4 (left one in the figure is for the water culture medium A and right one is for twofold concentration of the water culture medium A).
Similar operations were performed as in Example 6 except that the concentration of the added 5-aminolevulinic acid was adjusted to 0, 0.1, or 0.3 ppm, and the zinc concentration in barley was analyzed.
Similar operations were performed as in Example 6 except that the concentration of the added 5-aminolevulinic acid was adjusted to 0, 0.1, 0.3, 1, or 3 ppm, and the manganese concentration in barley was analyzed.
Similar operations were performed as in Example 6 except that the concentration of the added 5-aminolevulinic acid was adjusted to 0 or 30 ppm, and the calcium concentration in barley was analyzed.
Similar operations were performed as in Example 6 except that the concentration of the added 5-aminolevulinic acid was adjusted to 0 or 30 ppm, and the manganese concentration in barley was analyzed.
Similar operations were performed as in Example 6 except that the concentration of the added 5-aminolevulinic acid was adjusted to 0 or 30 ppm and the iron concentration in barley was analyzed.
Similar operations were performed as in Example 6 except that the concentration of the added 5-aminolevulinic acid was adjusted to 0 or 30 ppm, and the copper concentration in barley was analyzed.
Similar operations were performed as in Example 6 except that the concentration of the added 5-aminolevulinic acid was adjusted to 0 or 30 ppm, and the zinc concentration in barley was analyzed.
Similar operations were performed as in Example 6 except that the concentration of the added 5-aminolevulinic acid was adjusted to 0 or 30 ppm and the magnesium concentration in barley was analyzed.

potato = test: Metal absorption-enhancing effect in potato tubers by foliage treatment, metal analysis; assay type: in vivo; details: foliage treatment 1 ppm, from 30th day, then 8 times every other week, tubers harvested 105th day
Procedure: A seed tuber of potato was subjected to light-exposure and sprout-growth to stimulate germination. The germinated potato was planted in a pot of 1/20000×10 are in an amount of 1 tuber per pot. On 30th day after the planting (height of terrestrial portion: about 30 cm), 5-Aminolevulinic Acid hydrochloride was dissolved in a developing agent-diluted (2000 times) liquid in a concentration of 0 or 1 ppm and was applied to foliage treatment. Thereafter, the foliage treatment was performed 8 times every other week. The number of pots was 3 pots per test plot and new sprouts were removed while a strong thick sprout was left so that the number of sprout per pot was 1. On 105th day after the planting, potato as tubers was harvested and the tubers were selected from each test plot so that the total weight was 120±10 g. Then, they were pared and completely dried at 50° C. for two nights. Thereafter, they are pulverized and mixed in a mixer and then […] metal analysis was performed.
Similar operations were performed as in Example 14 and the magnesium concentration in potato was analyzed.

radish = test: Metal absorption-enhancing effect in radish by foliage treatment, metal analysis; assay type: in vivo; details: foliage treatment 1 or 10 ppm, 100 L per 10 are, together with DTPA iron and magnesium sulfate, harvest 25th day
Description: Radish was sowed in a pot of 1/57000×10 are in an amount of 6 seeds per pot and grown. An andosol (Kuroboku-soil) was used as soil and watering was suitably performed. On 11th day after the seeding (a two true leaves-developed stage), a solution containing 5-aminolevulinic acid hydrochloride prepared to a concentration of 0, 1, or 10 ppm in a developing agent-diluted (2000 times) liquid was applied to foliage treatment. Moreover, on this occasion, DTPA iron and magnesium sulfate were transformed into solutions having a concentration of 1.8 and 4.5 ppm in terms of Fe and MgO, respectively, and were applied to foliage treatment together with 5-aminolevulinic acid hydrochloride. The amount used for the treatment was 100 L per 10 are. The number of pots was 5 pots per test plot. On 15th day and 20th day after the seeding, thinning was performed and the number of plants per pot was adjusted to 4 individuals. On 25th day after the seeding, the plants were harvested and completely dried at 50° C. for two nights. Thereafter, they are pulverized and mixed in a mixer and then IPC metal analysis was performed.
Similar operations were performed as in Example and the zinc concentration in radish was analyzed.

spinach = test: Metal absorption-enhancing effect in spinach by daily spraying, metal content in dry weight by ICP; assay type: in vivo
Procedure: Two containers were provided and soil was placed in each of them, in which seeds of spinach were uniformly planted. From the day when the seeds were planted, water was applied once a day by means of a sprinkling can. To one of the container, tap water in which 5-aminolevulinic acid hydrochloride was dissolved in a concentration of 1 ppm was sprayed once a day in an amount of about 50 mL by means of a sprayer. Thinning was performed 3 weeks after the seed planting, and harvest was performed on the two containers after 38 days. At the harvest, the upper portions from the ground were cut out and the plant bodies were subjected to natural drying. After drying, the plant bodies was ground one by one in a mortar, the calcium content in dry weight was measured by ICP, and the concentration was calculated.
Similar operations were performed as in Example 1 and the manganese concentration in spinach was calculated.
Similar operations were performed as in Example 1 and the iron concentration in spinach was calculated.
Similar operations were performed as in Example 1 and the copper concentration in spinach was calculated.
Similar operations were performed as in Example 1 and the zinc concentration in spinach was calculated.

barley [2] = test: Metal absorption-enhancing effect in barley hydroponics (water culture medium A), ICP metal analysis; assay type: in vivo, Barley (race: Fiber snow); details: 0.1, 0.3, 1, or 3 ppm in water culture medium A; FIG. 6

Cl.NCC(=O)CCC(=O)O [5-aminolevulinic acid hydrochloride]
calcium content-enhancing effect in barley (barley [1]; 0.1, 0.3, or 1 ppm in water culture medium A): calcium content-enhancing effect was observed | zinc content-enhancing effect in barley (barley [1]; 0.1 or 0.3 ppm in water culture medium A): zinc content-enhancing effect was observed | copper content-enhancing effect in barley (barley [1]; 0.1 or 0.3 ppm, water culture medium A and twofold concentration of medium A): copper content-enhancing effect was observed | manganese content-enhancing effect in barley (barley [1]; 0.3 or 1 ppm in water culture medium A): manganese content-enhancing effect was observed | iron content-enhancing effect in barley (barley [1]; 1 or 3 ppm, twofold concentration of water culture medium A): iron content-enhancing effect was observed | calcium content-enhancing effect in barley (barley [1]; 30 ppm in water culture medium, Comparative Example 1): calcium content-enhancing effect was not observed | manganese content-enhancing effect in barley (barley [1]; 30 ppm in water culture medium, Comparative Example 2): manganese content-enhancing effect was not observed | iron content-enhancing effect in barley (barley [1]; 30 ppm in water culture medium, Comparative Example 3): iron content-enhancing effect was not observed | copper content-enhancing effect in barley (barley [1]; 30 ppm in water culture medium, Comparative Example 4): copper content-enhancing effect was not observed | zinc content-enhancing effect in barley (barley [1]; 30 ppm in water culture medium, Comparative Example 5): zinc content-enhancing effect was not observed | magnesium content-enhancing effect in barley (barley [1]; 30 ppm in water culture medium, Comparative Example 6, FIG. 6): magnesium content-enhancing effect was not observed | iron content-enhancing effect in potato (potato; FIG. 9): iron content-enhancing effect was observed | magnesium content-enhancing effect in potato (potato; FIG. 10): magnesium content-enhancing effect was observed | manganese content-enhancing effect in radish (radish; FIG. 7): manganese content-enhancing effect was observed | zinc content-enhancing effect in radish (radish; FIG. 8): zinc content-enhancing effect was observed | Average value of calcium concentration in spinach (spinach; 1 ppm in tap water sprayed once a day, about 50 mL, harvest after 38 days, dry weight, n = 18, no-ALA control 0.61): 0.68% | Average value of iron concentration in spinach (spinach; 1 ppm sprayed once a day, harvest after 38 days, dry weight, n = 18, no-ALA control 0.015): 0.049% | Average value of copper concentration in spinach (spinach; 1 ppm sprayed once a day, harvest after 38 days, dry weight, n = 18, no-ALA control 0.023): 0.029% | Average value of manganese concentration in spinach (spinach; 1 ppm sprayed once a day, harvest after 38 days, dry weight, n = 18, no-ALA control 0.027): 0.031% | Average value of zinc concentration in spinach (spinach; 1 ppm sprayed once a day, harvest after 38 days, dry weight, n = 18, no-ALA control 0.033): 0.048% | calcium content-enhancing effect in spinach (spinach; spraying, 1 ppm once a day): calcium content-enhancing effect was observed | copper content-enhancing effect in spinach (spinach; spraying, 1 ppm once a day): copper content-enhancing effect was observed | iron content-enhancing effect in spinach (spinach; spraying, 1 ppm once a day): iron content-enhancing effect was observed | manganese content-enhancing effect in spinach (spinach; spraying, 1 ppm once a day): manganese content-enhancing effect was observed | zinc content-enhancing effect in spinach (spinach; spraying, 1 ppm once a day): zinc content-enhancing effect was observed | magnesium content-enhancing effect in barley (barley [2]): magnesium content-enhancing effect was observed
